According to patent US8198291B2, “Intranasal opioid compositions” (University of Kentucky Research Foundation, priority 2000, dated 2012):

Experiments:
[1] = Bioavailability/bioequivalence of intranasal butorphanol formulation, unit-dose vs multi-dose spray device; format: in vivo, human
Experimental: This example compares bioavailability of a butorphanol formulation when administered using a unit-dose or multi-dose delivery device. The formulation contains 10 mg butorphanol tartrate, 6.5 mg sodium chloride, 1.0 mg citric acid, 0.20 mg benzethonium chloride in purified water with 1.2 mg sodium hydroxide and hydrochloric acid added to adjust the pH to 5.0. The multi-dose sprayer purports by its label to administer 0.1 ml of liquid composition by metering upon activation by the user. The formulation had the following function and properties when administered to human subjects via the Pfeiffer Unitdose Second Generation spray device.
The second delivery system employed to administer the butorphanol compositions was a unit-dose disposable intranasal applicator that is commercially available from Pfeiffer of America under the designation “Unitdose Second Generation.” Each of the Pfeiffer spray applicators was charged with sufficient liquid to deliver a 0.1 mL dose of the butorphanol test formulation. The glass containers were filled using a pipette under clean conditions, sealed and assembled to the applicator. Each of the applicators was weighed prior to use and after use. Qualified medical personnel administered, one dose into each nostril, after which the applicator was recovered for weighing. In the case of the unit-dose applicators (test formulation), two devices were used for each patient, both of which were discarded following the post-use weighing. The results of these studies of the method and system of the invention and the comparative prior art method follow.
This example assesses the bioequivalence of a butorphanol formulation administered from the unit-dose or multi-dose sprayers described above. The test formulation comprises 1 ml of STADOL NS containing 10 mg butorphanol tartrate, 6.5 mg sodium chloride, 1.0 mg citric acid, 0.20 mg benzethonium chloride in purified water with 1.2 mg sodium hydroxide and hydrochloric acid added to adjust the pH to 5.0. The multi-dose sprayer accompanying STADOL NS purports, by its label, to administer 0.1 ml of liquid. The unit-dose delivery device delivers 0.1 ml of liquid.
The second analysis was to determine whether the intrasubject variabilities of the two spray devices are equal. The study was initiated with 16 subjects, 15 of which completed the study to provide data for this analysis; one subject dropped out after the second period. The following analysis considers both raw and normalized data, with the latter standardized with respect to the dose dispensed.
For both the raw and normalized data, log transformations are applied to the pharmacokinetic endpoints Cmax, AUC ([…]), and AUC(inf.). A mixed effects model was considered for each parameter. Fixed effects for the factors sequence (4 levels), period 3 levels) and formulation (2 levels) were included in the model. Additionally, gender, as well as the interactions between gender and each of sequence, period and formulation was included as a factor in each model to determine whether separate analyses would be necessary for males and females. A total of seven models were considered: Tmax, log of raw Cmax values, log of normalized Cmax values, log transformed values for raw and normalized AUC(last), and log values for raw and normalized AUC(inf.). […] In addition, the lack of significance of the effects included in each model indicate that there was no evidence of unequal carryover between the delivery system of the prior art and that in one embodiment of the present invention.
The mean levels of butorphanol from analysis of the subject's blood plasma reported in pg/ml are plotted against time in FIGS. 1 and 2. The concentration of drug for the unit-dose was unexpectedly higher than that of the multi-dose system. The testing for bioequivalence was done using the method of two one-sided t-test (as described by Bolton, S., Pharmaceutical Statistics. Marcel Dekker, Inc., New York, 1997, pages 415 ff.). […]

[2] = Pharmacokinetics of butorphanol formulation without benzethonium chloride, Pfeiffer Unitdose Second Generation device; format: in vivo, human; conditions: single 2 mg intranasal dose, unit-dose device
Description: This formulation had the following spray pattern function when sprayed from the Pfeiffer Unitdose Second Generation device onto an impaction plate from at various distances.
The formulation had the following function and properties when administered to human subjects via the Pfeiffer Unitdose Second Generation spray device.

[3] = 2 mg intranasal dose, Pfeiffer Unitdose Second Generation spray device, formulation with benzethonium chloride
[4] = 90% CI, line between normCmax and normAUCinf, exponentiated, unit-dose vs multi-dose
[5] = 90% CI, normalized to dispensed dose, exponentiated, unit-dose vs multi-dose
[6] = 90% CI, raw data, exponentiated, unit-dose vs multi-dose
[7] = 90% confidence interval, unit-dose (test) vs multi-dose (reference)
[8] = intranasal, multi-dose spray pump

O=C(O)C(O)C(O)C(=O)O.Oc1ccc2c(c1)[C@@]13CCCC[C@@]1(O)[C@@H](C2)N(CC1CCC1)CC3 [butorphanol tartrate]
AUC(0-t) [1, 3]: about 10661 pg*hr/ml | Cmax [1, 3]: about 5230 pg/ml | Tmax [1, 3]: about 0.234 hr | log(AUClast) (second line of the table), Lower Conf Limit for Ratio of Test/Reference [1, 4]: 0.921 | log(AUClast) (second line of the table), Upper Conf Limit for Ratio of Test/Reference [1, 4]: 1.290 | log(normAUCinf), Lower Conf Limit for Ratio of Test/Reference [1, 5]: 0.937 | log(normAUCinf), Upper Conf Limit for Ratio of Test/Reference [1, 5]: 1.220 | log(normCmax), Lower Conf Limit for Ratio of Test/Reference [1, 5]: 0.897 | log(normCmax), Upper Conf Limit for Ratio of Test/Reference [1, 5]: 1.589 | log (AUClast), Lower Conf Limit for Ratio of Test/Reference [1, 6]: 1.037 | log (AUClast), Upper Conf Limit for Ratio of Test/Reference [1, 6]: 1.540 | log (Cmax), Lower Conf Limit for Ratio of Test/Reference [1, 6]: 1.031 | log (Cmax), Upper Conf Limit for Ratio of Test/Reference [1, 6]: 1.855 | log(AUCinf), Lower Conf Limit for Ratio of Test/Reference [1, 6]: 1.050 | log(AUCinf), Upper Conf Limit for Ratio of Test/Reference [1, 6]: 1.461 | Tmax, Lower Conf Limit for Ratio of Test/Reference [1, 7]: 0.749 | Tmax, Upper Conf Limit for Ratio of Test/Reference [1, 7]: 1.132 | AUC(0-t) [1, 8]: 9.329 ng·h/mL | Cmax [1, 8]: 4.072 ng/mL | Tmax [1, 8]: 14.7 min | area under the curve from multi-dose device as percent of that of the test (unit-dose) ([1]; multi-dose vs unit-dose device): 90% | higher area under the curve of test device compared to reference device ([1]; unit-dose vs multi-dose device): 10% | higher serum levels of test device compared to reference device ([1]; unit-dose vs multi-dose device): 10% | Tmax [2]: about 0.25 hr
